pIC50: −log10 of the molar value.
Target: TNF-α (Homo sapiens, UniProt P01375)
Assay: TNF-α Induced HEK Blue Cellular Assay
Assay type: cell-based
Settings: HEK Blue TNFα reporter cells, TNF-α 100 pg/ml, 24 hrs at 37° C., secreted alkaline phosphatase (QUANTI-Blue, 620 nm)
Method: TNF-α Induced HEK Bluet Cellular Assay
Test articles were diluted in DMSO and serially diluted into 384 well assay plate (Corning 3765), at final concentrations ranging from […] to 0.5 nM. HEK Blue™ TNFα reporter cells were added at a final density of 10,000 cell per well in assay media [DMEM (Gibco, cat #21063-029), 10% fetal bovine serum (ExcelBio, cat #FND500), 1% Penicillin-Streptomycin (Solarbio, cat #P1400-100]. TNF-α (R&D 210-TA-020/CF) was then added to the assay plate at a final concentration of 100 pg/ml. This plate was then incubated for 24 hrs at 37° C. and 5% CO2. Secreted alkaline phosphatase expression was then measured using QUANTI-Blue™ (Invivogen), according to manufacturer instructions and read on an Envision microplate reader at 620 nm.
Inhibition data for test compound over a range of concentration was plotted as percentage inhibition of the test compound (100%=maximum inhibition). IC50 values were determined after correcting for background [(sample read-mean of low control)/(mean of high control-mean of low control)] where by the low control is DMSO without stimulation and high control is DMSO with stimulation. The IC50 is defined as the concentration of test compound which produces 50% inhibition and was quantified using the 4 parameter logistic equation to fit the data.

Sequence of TNF-α (P01375 77-233 limits assumed): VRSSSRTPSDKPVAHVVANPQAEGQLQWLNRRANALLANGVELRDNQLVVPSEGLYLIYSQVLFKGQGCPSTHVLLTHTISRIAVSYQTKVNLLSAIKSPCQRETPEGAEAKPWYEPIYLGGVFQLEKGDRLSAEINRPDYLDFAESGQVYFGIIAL

Row | SMILES | pIC50
1 | Cc1nc2cc(F)c(-c3ccc(P(C)(C)=O)nc3)nc2c(N[C@H](CO)c2cc(C#N)ccc2F)c1Cl (single isomer, unassigned) [Example 63] | 4.52 to 5.00
2 | Cc1nc2cc(F)c(-c3ccc(P(C)(C)=O)nc3)nc2c(N[C@@H](CO)c2cc(C#N)ccc2F)c1Cl (single isomer, unassigned) [Example 64] | 4.52 to 5.00
3 | Cc1nc2cc(F)c(-c3ccc(P(C)(C)=O)nc3)cc2c(N[C@@H](C)c2cncnc2)c1Cl (single isomer, unassigned) [Example 101] | 4.52 to 5.00
4 | Cc1nc2cc(F)c(-c3ccc(P(C)(C)=O)nc3)nc2c(N[C@H](C)c2ccc(F)c(F)c2F)c1Cl (single isomer, unassigned) [Example 109] | ≥ 7.00
5 | Cc1nc2cc(F)c(-c3cnc(P(C)(C)=O)nc3)nc2c(N[C@H](C)c2cc(C#N)ccc2F)c1Cl [Example 1, 3-[(1R)-1-({3-chloro-6-[2-(dimethylphosphoryl)pyrimidin-5-yl]-7-fluoro-2-methyl-1,5-naphthyridin-4-yl}amino)ethyl]-4-fluorobenzonitrile] | ≥ 7.00
6 | Cc1nc2cc(F)c(-c3ccc(P(C)(C)=O)cc3)nc2c(N[C@H](C)c2cc(C#N)ccc2F)c1Cl [Example 3, 3-[(1R)-1-({3-chloro-6-[4-(dimethylphosphoryl)phenyl]-7-fluoro-2-methyl-1,5-naphthyridin-4-yl}amino)ethyl]-4-fluorobenzonitrile] | ≥ 7.00
7 | Cc1nc2ccc(-c3ccc(P(C)(C)=O)nc3)cc2c(N[C@H](C)c2cc(C#N)ccc2F)c1Cl [Example 5, 3-[(1R)-1-({3-chloro-6-[6-(dimethylphosphoryl)pyridin-3-yl]-2-methylquinolin-4-yl}amino)ethyl]-4-fluorobenzonitrile] | ≥ 7.00
8 | Cc1nc2ccc(-c3cnc(P(C)(C)=O)nc3)cc2c(N[C@H](C)c2cc(C#N)ccc2F)c1Cl [Example 6, 3-[(1R)-1-({3-chloro-6-[2-(dimethylphosphoryl)pyrimidin-5-yl]-2-methylquinolin-4-yl}amino)ethyl]-4-fluorobenzonitrile] | ≥ 6.00
9 | Cc1nc2cc(F)c(-c3cnc(P(C)(C)=O)nc3)nc2c(N[C@H](C)c2ccccc2F)c1Cl [Example 7, 3-chloro-6-[2-(dimethylphosphoryl)pyrimidin-5-yl]-7-fluoro-N-[(1R)-1-(2-fluorophenyl)ethyl]-2-methyl-1,5-naphthyridin-4-amine] | ≥ 6.00
10 | Cc1nc2cc(F)c(-c3cnc(P(C)(C)=O)nc3)cc2c(N[C@H](C)c2cc(C#N)ccc2F)c1Cl [Example 8, 3-[(1R)-1-({3-chloro-6-[2-(dimethylphosphoryl)pyrimidin-5-yl]-7-fluoro-2-methylquinolin-4-yl}amino)ethyl]-4-fluorobenzonitrile] | ≥ 7.00
11 | Cc1nc2cc(F)c(-c3ccc(P(C)(C)=O)nc3)cc2c(N[C@H](C)c2cc(C#N)ccc2F)c1Cl [Example 10, 3-[(1R)-1-({3-chloro-6-[6-(dimethylphosphoryl)pyridin-3-yl]-7-fluoro-2-methylquinolin-4-yl}amino)ethyl]-4-fluorobenzonitrile] | ≥ 7.00
12 | Cc1nc2cc(F)c(-c3cnc(P(C)(C)=O)nc3)cc2c(N[C@H](C)c2ccccc2F)c1Cl [Example 11, 3-chloro-6-[2-(dimethylphosphoryl)pyrimidin-5-yl]-7-fluoro-N-[(1R)-1-(2-fluorophenyl)ethyl]-2-methylquinolin-4-amine] | ≥ 7.00
13 | Cc1nc2cc(F)c(-c3ccc(P(C)(C)=O)nc3)nc2c(N[C@H](C)c2cc(C(N)=O)ccc2F)c1Cl [Example 13, 3-[(1R)-1-({3-chloro-6-[6-(dimethylphosphoryl)pyridin-3-yl]-7-fluoro-2-methyl-1,5-naphthyridin-4-yl}amino)ethyl]-4-fluorobenzamide] | ≥ 7.00
14 | C[C@@H](Nc1c(Cl)cnc2cc(F)c(-c3ccc(P(C)(C)=O)nc3)nc12)c1cc(C#N)ccc1F [Example 15, 3-[(1R)-1-({3-chloro-6-[6-(dimethylphosphoryl)pyridin-3-yl]-7-fluoro-1,5-naphthyridin-4-yl}amino)ethyl]-4-fluorobenzonitrile] | ≥ 7.00

Now from value to molecule:

Row | pIC50 | SMILES
15 | ≥ 7.00 | Cc1nc2cc(F)c(-c3ccc(P(C)(C)=O)nc3)nc2c(N[C@@H](c2ccccc2F)C(F)F)c1Cl (single isomer, unassigned) [Example 25]
16 | ≥ 7.00 | CC[P@](C)(=O)c1ccc(-c2nc3c(N[C@H](C)c4cc(C#N)ccc4F)c(Cl)c(C)nc3cc2F)cn1 (single isomer, unassigned) [Example 58]
17 | 4.52 to 5.00 | Cc1nc2cc(F)c(-c3ccc(P(C)(C)=O)nc3)cc2c(N[C@H](C)c2cncnc2)c1Cl (single isomer, unassigned) [Example 100]
18 | ≥ 7.00 | Cc1nc2cc(F)c(-c3ccc(P(C)(C)=O)nc3)nc2c(N[C@@H](C)c2ccc(F)c(F)c2F)c1Cl (single isomer, unassigned) [Example 110]
19 | ≥ 7.00 | Cc1nc2cc(F)c(-c3ccc(P(C)(C)=O)nc3)nc2c(N[C@H](C)c2ncccc2F)c1Cl (single isomer, unassigned) [Example 116]
20 | 5.00 to 6.00 | Cc1nc2cc(F)c(-c3ccc(P(C)(C)=O)nc3)nc2c(N[C@@H](C)c2ncccc2F)c1Cl (single isomer, unassigned) [Example 117]
21 | 4.52 to 5.00 | Cc1nc2cc(F)c(-c3ccc(P(C)(C)=O)nc3)nc2c(N[C@@H](c2cccc(F)c2F)C(F)F)c1Cl (single isomer, unassigned) [Example 145]
22 | ≥ 7.00 | Cc1nc2cc(F)c(-c3ccc(P(C)(C)=O)nc3)nc2c(N[C@H](C)c2cc(C#N)ccc2F)c1Cl [Example 2, 3-[(1R)-1-({3-chloro-6-[6-(dimethylphosphoryl)pyridin-3-yl]-7-fluoro-2-methyl-1,5-naphthyridin-4-yl}amino)ethyl]-4-fluorobenzonitrile]
23 | ≥ 6.00 | CC[C@@H](Nc1c(Cl)c(C)nc2cc(F)c(-c3ccc(P(C)(C)=O)c(F)c3)nc12)c1ncccc1F [Example 4, 3-chloro-6-[4-(dimethylphosphoryl)-3-fluorophenyl]-7-fluoro-N-[(1R)-1-(3-fluoropyridin-2-yl)propyl]-2-methyl-1,5-naphthyridin-4-amine]
24 | ≥ 7.00 | CC[C@@H](Nc1c(Cl)c(C)nc2cc(F)c(-c3cnc(P(C)(C)=O)nc3)nc12)c1cc(C#N)ccc1F [Example 9, 3-[(1R)-1-({3-chloro-6-[2-(dimethylphosphoryl)pyrimidin-5-yl]-7-fluoro-2-methyl-1,5-naphthyridin-4-yl}amino)propyl]-4-fluorobenzonitrile]
25 | ≥ 6.00 | C[C@@H](Nc1c(Cl)cnc2cc(F)c(-c3cnc(P(C)(C)=O)nc3)cc12)c1cc(C#N)ccc1F [Example 12, 3-[(1R)-1-({3-chloro-6-[2-(dimethylphosphoryl)pyrimidin-5-yl]-7-fluoroquinolin-4-yl}amino)ethyl]-4-fluorobenzonitrile]
26 | ≥ 6.00 | C[C@@H](Nc1c(Cl)cnc2cc(F)c(-c3cnc(P(C)(C)=O)nc3)nc12)c1cc(C#N)ccc1F [Example 14, 3-[(1R)-1-({3-chloro-6-[2-(dimethylphosphoryl)pyrimidin-5-yl]-7-fluoro-1,5-naphthyridin-4-yl}amino)ethyl]-4-fluorobenzonitrile]
27 | ≥ 7.00 | CC[C@@H](Nc1c(Cl)c(C)nc2cc(F)c(-c3cnc(P(C)(C)=O)nc3)nc12)c1ccccc1F [Example 16, 3-chloro-6-[2-(dimethylphosphoryl)pyrimidin-5-yl]-7-fluoro-N-[(1R)-1-(2-fluorophenyl)propyl]-2-methyl-1,5-naphthyridin-4-amine]
